Values belong to the compound of their own block, whether it stands above or below them. Square brackets hold non-standard residues; d marks the D form. Peptide text beside a SMILES is read from it. Abu(4-SO3H) = N[C@@H](CCS(=O)(=O)O)C(=O)O; PhLac = O=C(O)[C@@H](O)Cc1ccccc1
Key:
glucagon receptor [1] = biological target: T1, glucagon receptor (Homo sapiens, UniProt P47871); test: cAMP inhibition (antagonism of glucagon-induced cAMP production); assay type: cell-based; parameters: expressed in transfected cells; host or cells: HEK293; settings: Tables 5-12 and FIGS. 4, 5, 7, 8
glucagon receptor [2] = biological target: T1, glucagon receptor; test: Glucagon receptor binding assay (scintillation proximity competition with 125I-glucagon); settings: 6-29 shortened glucagon amide backbone
GLP-1 receptor = GLP-1 receptor (Homo sapiens, UniProt P43220); test: cAMP induction, firefly luciferase reporter assay in HEK293 cells; assay type: cell-based; settings: Table 13; cells expressing the human GLP-1 receptor
glucagon receptor [3] = biological target: T1, glucagon receptor; test: as above; assay type: cell-based; parameters: expressed in transfected cells; host or cells: HEK293; settings: read-out: cAMP Induction Glucagon Receptor EC50; Table 2

T1 sequence (P47871 26-477): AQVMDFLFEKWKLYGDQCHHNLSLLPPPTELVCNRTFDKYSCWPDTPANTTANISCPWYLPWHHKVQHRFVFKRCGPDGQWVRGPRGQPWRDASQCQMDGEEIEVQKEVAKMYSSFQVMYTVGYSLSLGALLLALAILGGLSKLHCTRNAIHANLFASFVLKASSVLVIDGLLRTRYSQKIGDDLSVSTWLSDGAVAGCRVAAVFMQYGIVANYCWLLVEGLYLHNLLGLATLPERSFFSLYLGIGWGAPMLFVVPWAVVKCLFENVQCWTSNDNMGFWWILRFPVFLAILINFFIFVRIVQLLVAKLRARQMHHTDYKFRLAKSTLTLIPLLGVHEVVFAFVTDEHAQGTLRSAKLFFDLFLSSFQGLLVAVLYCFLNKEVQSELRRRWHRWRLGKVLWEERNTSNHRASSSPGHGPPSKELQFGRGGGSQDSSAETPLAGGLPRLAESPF
Chain of GLP-1 receptor (P43220 24-463): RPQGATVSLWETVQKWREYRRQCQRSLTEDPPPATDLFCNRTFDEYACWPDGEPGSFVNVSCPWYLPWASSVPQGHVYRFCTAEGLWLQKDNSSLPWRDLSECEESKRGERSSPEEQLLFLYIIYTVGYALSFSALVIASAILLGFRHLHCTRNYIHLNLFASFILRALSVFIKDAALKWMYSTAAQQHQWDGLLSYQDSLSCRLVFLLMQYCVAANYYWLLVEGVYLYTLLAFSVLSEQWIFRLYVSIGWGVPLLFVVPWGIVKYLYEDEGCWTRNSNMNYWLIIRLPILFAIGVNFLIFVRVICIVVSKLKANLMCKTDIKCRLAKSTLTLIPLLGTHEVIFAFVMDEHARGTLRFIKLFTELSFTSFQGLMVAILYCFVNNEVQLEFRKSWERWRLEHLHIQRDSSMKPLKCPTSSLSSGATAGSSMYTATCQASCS

Compound: CC(C)C[C@H](NC(=O)[C@H](Cc1ccc(O)cc1)NC(=O)[C@H](CCCCN)NC(=O)[C@H](CO)NC(=O)[C@H](Cc1ccc(O)cc1)NC(=O)[C@H](CCS(=O)(=O)O)NC(=O)[C@H](CO)NC(=O)[C@@H](NC(=O)[C@H](Cc1ccccc1)NC(=O)[C@@H](NC(=O)[C@H](CC(C)C)NC(=O)[C@H](CCC(N)=O)NC(=O)[C@@H](N)CO)[C@@H](C)O)[C@@H](C)O)C(=O)N[C@@H](CC(=O)O)C(=O)N[C@@H](CO)C(=O)N[C@@H](CCCNC(=N)N)C(=O)N[C@@H](CCCNC(=N)N)C(=O)N[C@@H](C)C(=O)N[C@@H](CCC(N)=O)C(=O)N[C@@H](CC(=O)O)C(=O)N[C@@H](Cc1ccccc1)C(=O)N[C@H](C(=O)N[C@@H](CCC(N)=O)C(=O)N[C@@H](Cc1ccccc1)C(=O)N[C@@H](CC(C)C)C(=O)N[C@@H](CC(C)C)C(=O)N[C@@H](CC(N)=O)C(=O)N[C@H](C(N)=O)[C@@H](C)O)C(C)C [[desHis^1, Leu^4, hCys^9(SO3-), Phe^25, Leu^27] Glucagon-NH2] (H-SQLTFTS[Abu(4-SO3H)]YSKYLDSRRAQDFVQFLLNT-NH2; N-terminus assumed)
- glucagon antagonism in the cAMP bioassay, result in words (glucagon receptor [1]): some level of antagonism

Compound: CSCC[C@H](NC(=O)[C@H](CC(C)C)NC(=O)[C@H](Cc1c[nH]c2ccccc12)NC(=O)[C@H](CCC(N)=O)NC(=O)[C@@H](NC(=O)[C@H](Cc1ccccc1)NC(=O)[C@H](CC(=O)O)NC(=O)[C@H](CCC(N)=O)NC(=O)[C@H](C)NC(=O)[C@H](CCCNC(=N)N)NC(=O)[C@H](CCCNC(=N)N)NC(=O)[C@H](CO)NC(=O)[C@H](CC(=O)O)NC(=O)[C@H](CC(C)C)NC(=O)[C@H](Cc1ccc(O)cc1)NC(=O)[C@H](CCCCN)NC(=O)[C@H](CO)NC(=O)[C@H](Cc1ccc(O)cc1)NC(=O)[C@H](CCS(=O)(=O)O)NC(=O)[C@H](CO)NC(=O)[C@@H](NC(=O)[C@H](Cc1ccccc1)NC(=O)[C@@H](N)[C@@H](C)O)[C@@H](C)O)C(C)C)C(=O)N[C@@H](CC(N)=O)C(=O)N[C@H](C(N)=O)[C@@H](C)O [[hCys^9(SO3H)]Glucagon(aa5-29)-NH2, [hCys(SO3H)9]glucagon (5-29) amide] (H-TFTS[Abu(4-SO3H)]YSKYLDSRRAQDFVQWLMNT-NH2; N-terminus assumed)
- glucagon antagonism in the cAMP bioassay, result in words (glucagon receptor [1]; listed as 5-29 hCys9): pure potent antagonism, without any measurable agonist activity
- glucagon antagonism in the cAMP bioassay, result in words (glucagon receptor [1]; listed as 5-29 hCys9-based glucagon antagonist): more potent and effective than the literature standards
- glucagon antagonism in the cAMP bioassay, result in words (glucagon receptor [1]; listed as 5-29 hCys(SO3H)^9): full antagonists

Compound: Oxyntomodulin C24 PEG 20 K
- EC50 (glucagon receptor [3]): 0.97 ± 0.04 nM

Compound: CSCC[C@H](NC(=O)[C@H](CC(C)C)NC(=O)[C@H](Cc1c[nH]c2ccccc12)NC(=O)[C@H](CCC(N)=O)NC(=O)[C@@H](NC(=O)[C@H](Cc1ccccc1)NC(=O)[C@H](CC(=O)O)NC(=O)[C@H](CCC(N)=O)NC(=O)[C@H](C)NC(=O)[C@H](CCCNC(=N)N)NC(=O)[C@H](CCCNC(=N)N)NC(=O)[C@H](CO)NC(=O)[C@H](CC(=O)O)NC(=O)[C@H](CC(C)C)NC(=O)[C@H](Cc1ccc(O)cc1)NC(=O)[C@H](CCCCN)NC(=O)[C@H](CO)NC(=O)[C@H](Cc1ccc(O)cc1)NC(=O)[C@H](CCS(=O)(=O)O)NC(=O)[C@H](CO)NC(=O)[C@@H](NC(=O)[C@@H](N)Cc1ccccc1)[C@@H](C)O)C(C)C)C(=O)N[C@@H](CC(N)=O)C(=O)N[C@H](C(N)=O)[C@@H](C)O [[hCys^9(SO3H)]Glucagon(aa6-29)-NH2] (H-FTS[Abu(4-SO3H)]YSKYLDSRRAQDFVQWLMNT-NH2)
- glucagon antagonism in the cAMP bioassay, result in words (glucagon receptor [1]; listed as 6-29 hCys9): pure potent antagonism, without any measurable agonist activity
- glucagon antagonism in the cAMP bioassay, result in words (glucagon receptor [1]; listed as 6-29 hCys(SO3H)^9): full antagonists

Other lines, results leading:

- glucagon antagonism in the cAMP bioassay, result in words (glucagon receptor [1]): full antagonists
Compound: CSCC[C@H](NC(=O)[C@H](CC(C)C)NC(=O)[C@H](Cc1c[nH]c2ccccc12)NC(=O)[C@H](CCC(N)=O)NC(=O)[C@@H](NC(=O)[C@H](Cc1ccccc1)NC(=O)[C@H](CC(=O)O)NC(=O)[C@H](CCC(N)=O)NC(=O)[C@H](C)NC(=O)[C@H](CCCNC(=N)N)NC(=O)[C@H](CCCNC(=N)N)NC(=O)[C@H](CO)NC(=O)[C@H](CC(=O)O)NC(=O)[C@H](CC(C)C)NC(=O)[C@H](Cc1ccc(O)cc1)NC(=O)[C@H](CCCCN)NC(=O)[C@H](CO)NC(=O)[C@H](Cc1ccc(O)cc1)NC(=O)[C@H](CCS(=O)(=O)O)NC(=O)[C@H](CO)NC(=O)[C@@H](NC(=O)[C@H](Cc1ccccc1)NC(=O)[C@@H](NC(=O)CN)[C@@H](C)O)[C@@H](C)O)C(C)C)C(=O)N[C@@H](CC(N)=O)C(=O)N[C@H](C(N)=O)[C@@H](C)O [[hCys^9(SO3H)]Glucagon(aa4-29)-NH2, [hCys(SO3H)9]glucagon (4-29) amide] (H-GTFTS[Abu(4-SO3H)]YSKYLDSRRAQDFVQWLMNT-NH2; N-terminus assumed)

- increase of affinity for the glucagon receptor relative to the native Phe6 analog (glucagon receptor [2]): threefold
Compound: PLA6 analog: native glucagon with first 5 residues deleted and N-terminal amino group of Phe replaced with hydroxyl (phenyl-lactic acid); SEQ ID NO: 39

- GLP-1 agonism EC50 (GLP-1 receptor): No agonism
Compound: CSCC[C@H](NC(=O)[C@H](CC(C)C)NC(=O)[C@H](Cc1c[nH]c2ccccc12)NC(=O)[C@H](CCC(N)=O)NC(=O)[C@@H](NC(=O)[C@H](Cc1ccccc1)NC(=O)[C@H](CC(=O)O)NC(=O)[C@H](CCC(N)=O)NC(=O)[C@H](C)NC(=O)[C@H](CCCNC(=N)N)NC(=O)[C@H](CCCNC(=N)N)NC(=O)[C@H](CO)NC(=O)[C@H](CC(=O)O)NC(=O)[C@H](CC(C)C)NC(=O)[C@H](Cc1ccc(O)cc1)NC(=O)[C@H](CCCCN)NC(=O)[C@H](CO)NC(=O)[C@H](Cc1ccc(O)cc1)NC(=O)[C@H](CCC(=O)O)NC(=O)[C@H](CO)NC(=O)[C@@H](NC(=O)[C@@H](O)Cc1ccccc1)[C@@H](C)O)C(C)C)C(=O)N[C@@H](CC(N)=O)C(=O)N[C@H](C(N)=O)[C@@H](C)O [[PLA6, E9]Glucagon(aa6-29)-NH2] (H-[PhLac]TSEYSKYLDSRRAQDFVQWLMNT-NH2)

- glucagon antagonism in the cAMP bioassay, result in words (glucagon receptor [1]): some level of antagonism
Compound: CC(C)C[C@H](NC(=O)[C@H](Cc1ccc(O)cc1)NC(=O)[C@H](CCCCN)NC(=O)[C@H](CO)NC(=O)[C@H](Cc1ccc(O)cc1)NC(=O)[C@H](CCS(=O)(=O)O)NC(=O)[C@H](CO)NC(=O)[C@@H](NC(=O)[C@@H](NC(=O)CNC(=O)[C@H](CCC(N)=O)NC(=O)[C@@H](N)CO)[C@@H](C)O)[C@@H](C)O)C(=O)N[C@@H](CC(=O)O)C(=O)N[C@@H](CO)C(=O)N[C@@H](CCCNC(=N)N)C(=O)N[C@@H](CCCNC(=N)N)C(=O)N[C@@H](C)C(=O)N[C@@H](CCC(N)=O)C(=O)N[C@@H](CC(=O)O)C(=O)N[C@@H](Cc1ccccc1)C(=O)N[C@H](C(=O)N[C@@H](CCC(N)=O)C(=O)N[C@@H](Cc1ccccc1)C(=O)N[C@@H](CC(C)C)C(=O)N[C@@H](CC(C)C)C(=O)N[C@@H](CC(N)=O)C(=O)N[C@H](C(N)=O)[C@@H](C)O)C(C)C [[desHis^1, desPhe^6, hCys^9(SO3-), Phe^25, Leu^27] Glucagon-NH2] (H-SQGTTS[Abu(4-SO3H)]YSKYLDSRRAQDFVQFLLNT-NH2; N-terminus assumed)
